Data from patent publication US5159081A, “Intermediates of peripherally selective N-carbonyl-3,4,4-trisubstituted piperidine opioid antagonists” (Eli Lilly and Company, priority 1991, dated 1992).
Counter-ions that a name gives are not always drawn. Like-named read-outs stand apart in the source and are kept apart here.

Experiments:
mu receptor = biological target: T1, mu receptor (Rattus norvegicus, UniProt P33535); assay: Naloxone [3H] opioid receptor binding assay (mu receptor); design: species or system rat (male Sprague Dawley)
T1 construct: The brain tissue, rat whole brain minus cerebellum for mu was homogenized; from tissue; host or cells: brain minus cerebellum of male Sprague Dawley rats, homogenate fraction
T1 sequence (P33535 whole entry): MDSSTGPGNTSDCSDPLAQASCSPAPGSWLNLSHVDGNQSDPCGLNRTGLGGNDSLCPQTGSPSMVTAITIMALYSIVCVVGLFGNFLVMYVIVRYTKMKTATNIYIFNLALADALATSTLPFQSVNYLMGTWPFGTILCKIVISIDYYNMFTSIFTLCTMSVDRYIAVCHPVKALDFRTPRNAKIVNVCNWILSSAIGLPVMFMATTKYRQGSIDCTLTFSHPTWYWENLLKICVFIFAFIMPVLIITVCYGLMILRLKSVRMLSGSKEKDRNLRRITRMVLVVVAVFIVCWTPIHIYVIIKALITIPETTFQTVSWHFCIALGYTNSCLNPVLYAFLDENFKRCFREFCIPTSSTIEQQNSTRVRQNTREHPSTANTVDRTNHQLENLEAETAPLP

opioid receptor = biological target: T2, opioid receptor (Mus musculus, UniProt P42866); assay: in vivo; design: species or system CF-1 male mice; conditions: sc
T2 construct: Five CF-1 male mice (Charles River, Portage, MI); from tissue; host or cells: living CF-1 male mice (whole animal, endogenous receptor)
T2 sequence (P42866 whole entry): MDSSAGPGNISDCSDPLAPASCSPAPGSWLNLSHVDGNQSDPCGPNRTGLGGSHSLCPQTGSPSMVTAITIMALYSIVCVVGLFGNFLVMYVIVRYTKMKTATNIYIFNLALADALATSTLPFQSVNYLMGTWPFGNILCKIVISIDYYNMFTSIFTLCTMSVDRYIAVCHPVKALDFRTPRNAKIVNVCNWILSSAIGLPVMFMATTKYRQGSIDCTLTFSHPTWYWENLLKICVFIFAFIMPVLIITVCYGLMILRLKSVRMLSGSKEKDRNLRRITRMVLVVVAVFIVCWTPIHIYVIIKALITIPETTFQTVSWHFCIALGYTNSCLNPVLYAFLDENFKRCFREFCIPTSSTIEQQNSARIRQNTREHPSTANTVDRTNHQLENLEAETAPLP

[1] = biological target: peripheral opioid receptors (Mus musculus, UniProt P42866); assay: mouse diarrhea test: precipitated diarrhea in morphine-maintained mice (peripheral opioid activity); assay type: in vivo; conditions: mouse diarrhea test, morphine-maintained mice, subcutaneous or oral, 30 min observation
Sequence of peripheral opioid receptors (Mus musculus, UniProt P42866) (P42866 whole entry): as above

[2] = tested on: peripheral opioid receptors; assay: as above; assay type: in vivo
[3] = 20 min, pH 7.4, read-out: % displacement at 10 nM
[4] = 20 min, pH 7.4, read-out: % displacement at 100 nM
[5] = […], rat whole brain minus cerebellum, [3H]naloxone 0.5 nM, pH 7.4, 37° C., 20 min, read-out: Ki
[6] = mouse writhing test, […], s.c. 20 min before acetic acid, read-out: AD50 (the source's name)
[7] = AD50 mouse writhing / ED50 mouse diarrhea, higher = greater relative peripheral antagonism
[8] = 20 min, pH 7.4, 10 nM test compound, [3H]naloxone 0.5 nM, mu receptor, read-out: % displacement at 10 nM
[9] = 20 min, pH 7.4, 100 nM test compound, [3H]naloxone 0.5 nM, mu receptor, read-out: % displacement at 100 nM
[10] = mouse writhing test, dose of antagonist that reduced inhibition of writhing by 1.25 mg/kg morphine sulfate to 50%, s.c. 20 min before acetic acid, read-out: AD50 (the source's name)

## CNC(=O)CC(=O)N(CCN1CC[C@@](C)(c2cccc(O)c2)[C@@H](C)C1)C1CCCCC1 (relative stereo) [Example 36, N-Methyl-3-oxo-3-((2-(trans-4-(3-hydroxyphenyl)-3,4-dimethyl-1-piperidinyl)ethyl)cyclohexylamino)propanamidemonohydrochloride monohydrate]
Mu receptor; [3]
  inhibition at 0.01 µM: 85%
Mu receptor; [4]
  inhibition at 0.1 µM: 99%
Mu receptor; [5]
  Ki: 3.01 nM
Opioid receptor; [6]
  ED50: 2.9 mg/kg
[1]
  ED50: 0.39 mg/kg
[2]; [7]
  Ratio (ratio of AD50 to ED50): 8

## CC1CN(CCNC(=O)[C@H](CCCNC(=N)N[N+](=O)[O-])NC(=O)OC(C)(C)C)CCC1(C)c1cccc(O)c1 (stereo partly drawn) [Example 44, (1-(((2-(Trans-4-(3-hydroxyphenyl)-3,4-dimethyl-1-piperidinyl)ethyl)amino)carbonyl)-4-((imino(nitroamino)methyl)amino)butyl) carbamic acid, 1,1-dimethylethyl ester]
Mu receptor; [3]
  inhibition at 0.01 µM: 63%
Mu receptor; [4]
  inhibition at 0.1 µM: 85%
Mu receptor; [5]
  Ki: 2.34 nM
Opioid receptor; [6]
  ED50: > 2 mg/kg
[1]
  ED50: 0.07 mg/kg
[2]; [7]
  Ratio (ratio of AD50 to ED50): > 30

## C[C@H]1CN(CCN(C(=O)CCC(=O)OCC2CCCCC2)C2CCCCC2)CC[C@@]1(C)c1cccc(O)c1 (relative stereo) [Example 73]
Mu receptor; [8]
  inhibition at 0.01 µM: 46%
Mu receptor; [9]
  inhibition at 0.1 µM: 88%
Opioid receptor; [6]
  ED50: 9.2 mg/kg
[1]; 0.5 h, read-out: ED50
  ED50: 0.17 mg/kg
[2]; [7]
  Ratio (ratio of AD50 to ED50): 54

## C[C@H]1CN(CCN(C(=O)CC(N)=O)C2CCCCC2)CC[C@@]1(C)c1cccc(O)c1 (relative stereo) [Example 34, N-Cyclohexyl-N-(2-(trans-4-(3-hydroxyphenyl)-3,4-dimethyl-1-piperidinyl)ethyl)propanediamidehydrochloride monohydrate]
Mu receptor; [8]
  inhibition at 0.01 µM: 77%
Mu receptor; [9]
  inhibition at 0.1 µM: 91%
Opioid receptor; [6]
  ED50: 8.2 mg/kg
[1]; 0.5 h, read-out: ED50
  ED50: 0.39 mg/kg
[2]; [7]
  Ratio (ratio of AD50 to ED50): 21

## CC(C)CC(CCN1CC[C@@](C)(c2cccc(O)c2)[C@@H](C)C1)NC(=O)CCCC(=O)O (stereo partly drawn) [Example 4, 5-[[1-(2-methylpropyl)-3-[4-(3-hydroxyphenyl)-3,4-dimethyl-1-piperidinyl]propyl]amino]-5-oxopentanoic acid]
Mu receptor
  Ki: 1.41 nM
Mu receptor; [3]
  inhibition at 0.01 µM: 86%
Mu receptor; [4]
  inhibition at 0.1 µM: 94%
Opioid receptor; mouse, read-out: AD50
  ED50: 17.5 mg/kg
[1]
  ED50: 0.07 mg/kg
[2]; mouse, in vivo
  Ratio (ratio of AD50 to ED50): 250

## CCOC(=O)CC(=O)N[C@H](Cc1ccccc1)CN1CC[C@](C)(c2cccc(O)c2)[C@H](C)C1 [Example 12, Ethyl trans-3-((2-(4-(3-hydroxyphenyl)-3,4-dimethyl-1-piperidinyl)-1-(D-(phenylmethyl)ethyl)amino))-3-oxopropionate hydrochloride]
Mu receptor; [3]
  inhibition at 0.01 µM: 43%
Mu receptor; [4]
  inhibition at 0.1 µM: 87%
Opioid receptor; [6]
  ED50: 20 mg/kg
[1]
  ED50: 0.20 mg/kg
[2]; mouse, in vivo
  Ratio (ratio of AD50 to ED50): 100

## CCCOC(=O)CCCC(=O)N[C@@H](CC1CCCCC1)CN1CC[C@](C)(c2cccc(O)c2)[C@H](C)C1 [Example 53]
Mu receptor; [3]
  inhibition at 0.01 µM: 50%
Mu receptor; [4]
  inhibition at 0.1 µM: 88%
Opioid receptor; [6]
  ED50: > 40 mg/kg
[1]
  ED50: 1.06 mg/kg
[2]; [7]
  Ratio (ratio of AD50 to ED50): > 38

## C[C@H]1CN(CCN(C(=O)CC(=O)O)C2CCCCC2)CC[C@@]1(C)c1cccc(O)c1 (relative stereo) [Example 21, 3-(cyclohexyl-(2-(trans-4-(3-hydroxyphenyl)-3,4-dimethyl-1-piperidinyl)ethyl)amino)-3-oxopropanoic acid monohydrate]
Mu receptor; [8]
  inhibition at 0.01 µM: 53%
Mu receptor; [9]
  inhibition at 0.1 µM: 80%
Opioid receptor; [6]
  ED50: 17.1 mg/kg
[1]; 0.5 h, read-out: ED50
  ED50: 0.073 mg/kg
[2]; [7]
  Ratio (ratio of AD50 to ED50): 71

## CCCOC(=O)CCCC(=O)N[C@@H](CC1CCCCC1)CN1CC[C@@](C)(c2cccc(O)c2)[C@@H](C)C1 [Example 54]
Mu receptor; [3]
  inhibition at 0.01 µM: 81%
Mu receptor; [4]
  inhibition at 0.1 µM: 96%
Mu receptor; [5]
  Ki: 5.07 nM
Opioid receptor; [6]
  ED50: 27 mg/kg
[1]
  ED50: 0.0015 mg/kg
[2]; [7]
  Ratio (ratio of AD50 to ED50): 18000

## Cc1oc(=O)oc1COC(=O)CCCC(=O)N[C@@H](CC1CCCCC1)CN1CC[C@@](C)(c2cccc(O)c2)[C@@H](C)C1 [Example 70]
Mu receptor; [3]
  inhibition at 0.01 µM: 89%
Mu receptor; [4]
  inhibition at 0.1 µM: 99%
Mu receptor; [5]
  Ki: 1.78 nM
Opioid receptor; [6]
  ED50: 18.2 mg/kg
[1]
  ED50: 0.017 mg/kg
[2]; [7]
  Ratio (ratio of AD50 to ED50): 1070

## CC(C)COC(=O)CCC(=O)N(CCN1CC[C@@](C)(c2cccc(O)c2)[C@@H](C)C1)C1CCCCC1 (relative stereo) [Example 72]
Mu receptor; [8]
  inhibition at 0.01 µM: 73%
Mu receptor; [9]
  inhibition at 0.1 µM: 96%
Opioid receptor; [6]
  ED50: 5.5 mg/kg
[1]; 0.5 h, read-out: ED50
  ED50: 0.017 mg/kg
[2]; [7]
  Ratio (ratio of AD50 to ED50): 324

## CC(C)CN(CCCN1CC[C@@](C)(c2cccc(O)c2)[C@@H](C)C1)C(=O)CCCC(=O)O (relative stereo) [Example 29, 5-(2-Methylpropyl-(3-(trans-4-(3-hydroxyphenyl)-3,4-dimethyl-1-piperidinyl)propyl)amino)-5-oxopentanoic acid monohydrate]
Mu receptor; [8]
  inhibition at 0.01 µM: 56%
Mu receptor; [9]
  inhibition at 0.1 µM: 88%
Opioid receptor; [6]
  ED50: 7.6 mg/kg
[1]; 0.5 h, read-out: ED50
  ED50: 0.99 mg/kg
[2]; [7]
  Ratio (ratio of AD50 to ED50): 7.7

## CCNC(=O)COC(=O)CCCC(=O)N[C@@H](CC1CCCCC1)CN1CC[C@@](C)(c2cccc(O)c2)[C@@H](C)C1 [Example 66]
Mu receptor; [3]
  inhibition at 0.01 µM: 81%
Mu receptor; [4]
  inhibition at 0.1 µM: 94%
Mu receptor; [5]
  Ki: 1.84 nM
Opioid receptor; [6]
  ED50: 12.2 mg/kg
[1]
  ED50: 0.005 mg/kg
[2]; [7]
  Ratio (ratio of AD50 to ED50): 2440

## C[C@@H]1CN(C[C@H](CC2CCCCC2)NC(=O)CCCC(=O)OCC(N)=O)CC[C@]1(C)c1cccc(O)c1 [Example 60]
Mu receptor; [3]
  inhibition at 0.01 µM: 76%
Mu receptor; [4]
  inhibition at 0.1 µM: 95%
Mu receptor; [5]
  Ki: 5.96 nM
Opioid receptor; [6]
  ED50: > 10 mg/kg
[1]
  ED50: 0.035 mg/kg
[2]; [7]
  Ratio (ratio of AD50 to ED50): > 285

## CC(C)CCN(CCN1CC[C@@](C)(c2cccc(O)c2)[C@@H](C)C1)C(=O)CCC(=O)O (relative stereo) [Example 28, 4-(3-methylbutyl-(2-(trans-4-(3-hydroxyphenyl)-3,4-dimethyl-1-piperidinyl)ethyl)amino)-4-oxobutanoic acid monohydrate]
Mu receptor; [8]
  inhibition at 0.01 µM: 67%
Mu receptor; [9]
  inhibition at 0.1 µM: 100%
Opioid receptor; [10]
  ED50: > 1.25 mg/kg
[1]; 0.5 h, read-out: ED50
  ED50: 0.1 mg/kg
[2]; [7]
  Ratio (ratio of AD50 to ED50): > 12

## C[C@H]1CN(CCC(CC2CCCCC2)NC(=O)CCC(=O)O)CC[C@@]1(C)c1cccc(O)c1 (stereo partly drawn) [Example 1, 4-[(3-(4-(3-hydroxyphenyl)-3,4-dimethyl-1-piperidinyl)-1-(cyclohexylmethyl)propyl)amino]-4-oxobutanoic acid monohydrate]
Mu receptor
  Ki: 6.88 nM
Mu receptor; [3]
  inhibition at 0.01 µM: 72%
Mu receptor; [4]
  inhibition at 0.1 µM: 94%
Opioid receptor; mouse, read-out: AD50
  ED50: > 40 mg/kg
[1]
  ED50: 0.01 mg/kg
[2]; mouse, in vivo
  Ratio (ratio of AD50 to ED50): > 4000

## CC(C)C(=O)NCCCC(=O)NC(CCCNC(=N)N[N+](=O)[O-])C(=O)NC(CCN1CC[C@@](C)(c2cccc(O)c2)[C@@H](C)C1)c1ccccc1 (single isomer, unassigned; (-)) [Example 9, (-)-N-(1-phenyl-3-(trans-4-(3-hydroxyphenyl)-3,4-dimethyl-1-piperidinyl)propyl)-2-((1-oxo-4-(2-methyl-1-oxopropyl)amino)butyl)amino-5-((imino(nitroamino)-methyl)amino)pentanamide]
Mu receptor; [4]
  inhibition at 0.1 µM: 100%
Mu receptor; 20 min, pH 7.4, 10 nM test compound, [3H]naloxone 0.5 nM, […], read-out: % displacement at 10 nM
  inhibition at 0.01 µM: 92%
Mu receptor; [5]
  Ki: 1.33 nM
Opioid receptor; [10]
  ED50: > 1.25 mg/kg
[1]
  ED50: 0.25 mg/kg
[2]; [7]
  Ratio (ratio of AD50 to ED50): > 5

## C[C@H]1CN(C[C@@H](CC2CCCCC2)NC(=O)CCCC(=O)O)CC[C@@]1(C)c1cccc(O)c1 [Example 46D]
Mu receptor; [3]
  inhibition at 0.01 µM: 48%
Mu receptor; [4]
  inhibition at 0.1 µM: 84%
Opioid receptor; [6]
  ED50: 6.5 mg/kg
[1]
  ED50: 0.09 mg/kg
[2]; [7]
  Ratio (ratio of AD50 to ED50): 72

## C[C@H]1CN(C[C@H](CC2CCCCC2)NC(=O)CCCC(=O)O)CC[C@@]1(C)c1cccc(O)c1 [Example 45D]
Mu receptor; [3]
  inhibition at 0.01 µM: 82%
Mu receptor; [4]
  inhibition at 0.1 µM: 94%
Mu receptor; [5]
  Ki: 0.56 nM
Opioid receptor; [6]
  ED50: > 40 mg/kg
[1]
  ED50: 0.029 mg/kg
[2]; [7]
  Ratio (ratio of AD50 to ED50): > 1379

## CCOC(=O)CCC(=O)N(CCN1CC[C@@](C)(c2cccc(O)c2)[C@@H](C)C1)C1CCCCC1 (relative stereo) [Example 71]
Mu receptor; [3]
  inhibition at 0.01 µM: 78%
Mu receptor; [4]
  inhibition at 0.1 µM: 96%
Mu receptor; [5]
  Ki: 3.85 nM
Opioid receptor; [6]
  ED50: 3.71 mg/kg
[1]
  ED50: 0.29 mg/kg
[2]; [7]
  Ratio (ratio of AD50 to ED50): 13
